According to patent US7893288B2, “Poly-halogenated triazapentadiene compositions” (Board of Regents, The University of Texas System, priority 2007, dated 2011):
“And” between values parts separate entries of the source, which are not always exact repeats. Equal entries are not always repeated.

What was measured:
Type in all cases: cell-based
[1] = system: Escherichia coli HB101; assay: Minimum inhibitory concentration in LB broth, E. coli;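 further: broth dilution MIC, test compounds first taken up in DMSO, then serially diluted in LB medium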
Text: (§1) Methods for antimicrobial analysis included a modified Kirby-Bauer method and a determination of their minimum inhibitory concentrations.
(§2) For MIC assessment, compounds were initially dissolved in DMSO and serial dilutions of soluble compounds were made in LB broth.

[2] = system: Pseudomonas aeruginosa PAO1; assay: Minimum inhibitory concentration in LB broth, P. aeruginosa
Text: as §1, §2

[3] = system: Bacillus subtilis W168; assay: Minimum inhibitory concentration in LB broth, B. subtilis
Text: as §1, §2

[4] = system: Escherichia coli HB101; assay: Disk sensitivity test (modified Kirby-Bauer), E. coli;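 further: filter disk loaded with compound in DMSO laid on an LB agar bacterial lawn, kept overnight at 37 °C, then the inhibition zone around the disk is measured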
[5] = system: Staphylococcus aureus (ATCC 25923); assay: Minimum inhibitory concentration in LB broth, S. aureus
[6] = system: Pseudomonas aeruginosa PAO1; assay: Disk sensitivity test (modified Kirby-Bauer), P. aeruginosa;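 further: Compound-loaded filter disks on LB agar lawns, DMSO as solvent, zone of inhibition around each disk read after overnight incubation at 37 °C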
[7] = system: Staphylococcus aureus (ATCC 25923); assay: Disk sensitivity test (modified Kirby-Bauer), S. aureus;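 further: Compound-loaded filter disks on LB agar plates seeded with a confluent bacterial lawn, compound dissolved in DMSO, plates kept overnight at 37 °C, then inhibition zone around disk measured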
Experimental: In brief, the modified Kirby-Bauer method relied on placement of a filter disk impregnated with a desired compound on a solid growth medium. Bacteria were grown to a confluent lawn and the extent of growth inhibition was measured (e.g., as an extent/percentage of a clear zone on the disk and/or solid medium).
Filter disks were provided as sterile filter paper (about 6 mm in diameter) and spotted with 20 μL of a selected compound. Each compound was initially dissolved in dimethylsulfoxide (DMSO); any subsequent dilutions were also made in DMSO. Each filter was placed on an LB agar plate spread with 100 μL of a bacterial culture that had been grown overnight in suitable LB broth. Plates were incubated overnight at 37° C., after which, the extent of growth inhibition around each filter disk was measured. Bacterial strains included Staphylococcus aureus (ATCC 25923), Pseudomonas aeruginosa PAO1, Bacillus subtilis W168 and Escherichia coli HB101. […] The latter two strains are non-pathogenic Gram-positive and Gram-negative bacterial strains, respectively.

[8] = system: Bacillus subtilis W168; assay: Disk sensitivity test (modified Kirby-Bauer), B. subtilis;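 further: Compound-loaded filter disks on LB agar plates seeded with a bacterial lawn, plates held overnight at 37 °C, then the clear zone around each disk measured, compounds in DMSO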
[9] = efficacy per mole from MIC values
[10] = 1.00 × 10^0 μg/ml (printed 5.9 × 10^−6 mM)
[11] = 1.00 × 10^1 μg/ml (5.9 × 10^−5 mM)
[12] = 1.00 × 10^2 μg/ml (5.9 × 10^−4 mM [sic])
[13] = 1.00 × 10^3 μg/ml (printed 5.9 × 10^−3 mM)
[14] = 1.00 × 10^4 μg/ml (printed 5.9 × 10^−2 mM)

O=[N+]([O-])[O-].[Ag+] [AgNO3, reference compound]
MIC [1]: 10.0 μg/ml and 5.89 × 10^−2 mM
Relative to AgNO3 [1, 9]: 1.00
MIC [2]: 3.12 μg/ml and 1.84 × 10^−2 mM
Relative to AgNO3 [2, 9]: 1.00
MIC [3]: 25.00 μg/ml and 1.47 × 10^−1 mM
Relative to AgNO3 [3, 9]: 1.00
Diameter of the zone of growth inhibition [4, 10]: 7.0 mm
Diameter of the zone of growth inhibition [4, 11]: 8.5 mm
Diameter of the zone of growth inhibition [4, 12]: 13.0 mm
Diameter of the zone of growth inhibition [4, 13]: 14.0 mm
Diameter of the zone of growth inhibition [4, 14]: 15.0 mm
MIC [5]: 12.50 μg/ml and 7.36 × 10^−2 mM
Relative to AgNO3 [5, 9]: 1.00
Diameter of the zone of growth inhibition [6, 10]: 6.0 (NZ) mm
Diameter of the zone of growth inhibition [6, 11]: 6.0 (NZ) mm
Diameter of the zone of growth inhibition [6, 12]: 9.5 mm
Diameter of the zone of growth inhibition [6, 13]: 12.5 mm
Diameter of the zone of growth inhibition [6, 14]: 16.0 mm
Diameter of the zone of growth inhibition [7, 10]: 6.0 (NZ) mm
Diameter of the zone of growth inhibition [7, 11]: 7.0 mm
Diameter of the zone of growth inhibition [7, 12]: 8.5 mm
Diameter of the zone of growth inhibition [7, 13]: 9.0 mm
Diameter of the zone of growth inhibition [7, 14]: 10.5 mm
Diameter of the zone of growth inhibition [8, 10]: 9.0 mm
Diameter of the zone of growth inhibition [8, 11]: 9.5 mm
Diameter of the zone of growth inhibition [8, 12]: 13.0 mm
Diameter of the zone of growth inhibition [8, 13]: 13.0 mm
Diameter of the zone of growth inhibition ([8]; (printed 5.9 × 10^−2 mM)): 16.0 mm
